Measurements as given in EP3046573B1, “AMYLIN ANALOGUES” (Zealand Pharma A/S, priority 2013, dated 2015).
Numbered stars: 1 amine (or outer) side, 2 acyl side, 3 side chain; on linkers, the order of the positions; unused ones are H or OH. Bridge positions count the residues as written; N and C are the ends. Square brackets hold non-standard residues; d marks the D form. Peptide text beside a SMILES is read from it. * marks the point of attachment. C20 diacid = O=C(O)CCCCCCCCCCCCCCCCCCC(=O)*; C18 diacid = O=C(O)CCCCCCCCCCCCCCCCC(=O)*; γGlu = O=C(O)[C@H](CCC(=O)[*:2])N[*:1]; NMeI = CC[C@H](C)[C@H](NC)C(=O)O; Sar = CNCC(=O)O

Columns and labels:
[1] = Solubility assessment (turbidity absorbance at 325 nm); assay type: physicochemical; settings: stock 2 mg/ml diluted 1:1, ambient temperature (typically 25°C), n=1; for Solubility, Acetate buffer pH 4: 100 mM acetate buffer pH 4.0; for Solubility, Acetate buffer pH 5: 100 mM acetate buffer pH 5.0; for Solubility, Histidine buffer pH 6: 100 mM histidine buffer pH 6.0; for Solubility, Histidine buffer pH 7: 100 mM histidine buffer pH 7.0; for Solubility, Phosphate buffer pH 6: 100 mM phosphate buffer pH 6.0; for Solubility, Phosphate buffer pH 7: 100 mM phosphate buffer pH 7.0; for Solubility, Phosphate buffer pH 7.5: 100 mM phosphate buffer pH7.5
How it was run: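 Stock 2 mg/ml peptide, H2O/HCl pH 2.5; 1:1 into 100 mM buffers: acetate pH 4.0/5.0, His pH 6.0/7.0, phosphate pH 6.0/7.0/7.5. A280 + A325, ~25°C, n=1. Soluble ≥ 1 mg/ml if A325 ≤ 0.02.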

[2] = molecular target: T1, human calcitonin receptor (hCTR2) (Homo sapiens, UniProt P30988); assay: hCTR2 assay: induction of cAMP (AlphaScreen cAMP Assay kit) in COS7 cells expressing hCTR2; assay type: cell-based
T1 construct: expressed in transfected cells
T1 sequence (P30988 25-474): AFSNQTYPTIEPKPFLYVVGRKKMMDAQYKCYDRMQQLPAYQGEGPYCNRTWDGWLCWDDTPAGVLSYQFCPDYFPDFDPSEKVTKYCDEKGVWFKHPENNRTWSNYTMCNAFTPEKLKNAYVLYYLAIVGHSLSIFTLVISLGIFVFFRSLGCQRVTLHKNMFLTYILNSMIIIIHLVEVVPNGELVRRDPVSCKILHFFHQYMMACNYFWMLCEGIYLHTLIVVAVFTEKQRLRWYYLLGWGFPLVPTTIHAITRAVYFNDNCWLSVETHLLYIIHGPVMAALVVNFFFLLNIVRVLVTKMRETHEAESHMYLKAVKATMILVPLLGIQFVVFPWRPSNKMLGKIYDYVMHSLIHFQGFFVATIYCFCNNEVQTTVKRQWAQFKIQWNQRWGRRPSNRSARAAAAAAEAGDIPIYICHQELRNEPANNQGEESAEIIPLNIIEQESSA
How it was run: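 COS7 stable hCTR2 clone (RAMP-free); peptide dose-response 15 min 37° C in Tyrode pH 7.4 + 100 µM IBMX + 0.1% casein; lysis 10 min RT; AlphaScreen cAMP; 4PL fit.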

Structure (SMILES) | Solubility, Acetate buffer pH 4 [1] | Solubility, Acetate buffer pH 5 [1] | Solubility, Histidine buffer pH 6 [1] | Solubility, Histidine buffer pH 7 [1] | Solubility, Phosphate buffer pH 6 [1] | Solubility, Phosphate buffer pH 7 [1] | Solubility, Phosphate buffer pH 7.5 [1] | EC50 [2] [pM]
CC[C@H](C)[C@@H](C(=O)N[C@@H](CC(C)C)C(=O)N[C@@H](CO)C(=O)N[C@@H](CO)C(=O)N[C@H](C(=O)N[C@@H](CC(N)=O)C(=O)N[C@H](C(=O)NCC(=O)N[C@@H](CO)C(=O)N[C@@H](CC(N)=O)C(=O)N[C@H](C(=O)N1CCC[C@H]1C(N)=O)[C@@H](C)O)C(C)C)[C@@H](C)O)N(C)C(=O)[C@H](C)NC(=O)CN(C)C(=O)[C@H](Cc1ccccc1)NC(=O)[C@H](CC(N)=O)NC(=O)[C@H](CC(N)=O)NC(=O)[C@H](CO)NC(=O)[C@H](CO)NC(=O)[C@H](CCCNC(=N)N)NC(=O)[C@H](Cc1c[nH]cn1)NC(=O)[C@H](CC(C)C)NC(=O)[C@H](Cc1ccccc1)NC(=O)[C@H](CCC(=O)O)NC(=O)[C@H](C)NC(=O)[C@H](CC(C)C)NC(=O)[C@H](CCCNC(=N)N)NC(=O)[C@H](CCC(N)=O)NC(=O)[C@@H](NC(=O)[C@H](C)NC(=O)[C@@H]1CSSC[C@H](NC(=O)[C@H](CCCCN)NC(=O)[C@H](CCCNC(=N)N)NC(=O)CC[C@H](NC(=O)CCCCCCCCCCCCCCCCCCC(=O)O)C(=O)O)C(=O)N[C@@H](CC(N)=O)C(=O)N[C@@H]([C@@H](C)O)C(=O)N[C@@H](C)C(=O)N[C@@H]([C@@H](C)O)C(=O)N1)[C@@H](C)O [Compound 86, [19CD]-isoGlu-RKC()NTATC()ATQRLAEFLHRSSNNF-Gly(Me)-A-Ile(Me)-LSSTNVGSNTP-NH2] ({C20 diacid-γGlu}-RKCNTATCATQRLAEFLHRSSNNF[Sar]A[NMeI]LSSTNVGSNTP-NH2; disulfide 3-8) | SS (SS indicates solubility ≥ 1mg/ml) | SS (SS indicates solubility ≥ 1mg/ml) | SS (SS indicates solubility ≥ 1mg/ml) | SS (SS indicates solubility ≥ 1mg/ml) | SS (SS indicates solubility ≥ 1mg/ml) | SS (SS indicates solubility ≥ 1mg/ml) | SS (SS indicates solubility ≥ 1mg/ml) | 65
CC[C@H](C)[C@@H](C(=O)N[C@@H](CC(C)C)C(=O)N[C@@H](CO)C(=O)N[C@@H](CO)C(=O)N[C@H](C(=O)N[C@@H](CC(N)=O)C(=O)N[C@H](C(=O)NCC(=O)N[C@@H](CO)C(=O)N[C@@H](CC(N)=O)C(=O)N[C@H](C(=O)N1CCC[C@H]1C(N)=O)[C@@H](C)O)C(C)C)[C@@H](C)O)N(C)C(=O)[C@H](C)NC(=O)CN(C)C(=O)[C@H](Cc1ccccc1)NC(=O)[C@H](CC(N)=O)NC(=O)[C@H](CC(N)=O)NC(=O)[C@H](CO)NC(=O)[C@H](CO)NC(=O)[C@H](CCCNC(=N)N)NC(=O)[C@H](Cc1c[nH]cn1)NC(=O)[C@H](CC(C)C)NC(=O)[C@H](Cc1ccccc1)NC(=O)[C@H](CCC(=O)O)NC(=O)[C@H](C)NC(=O)[C@H](CC(C)C)NC(=O)[C@H](CCCNC(=N)N)NC(=O)[C@H](CCC(N)=O)NC(=O)[C@@H](NC(=O)[C@H](C)NC(=O)[C@@H]1CSSC[C@H](NC(=O)[C@H](CCCCN)NC(=O)[C@H](Cc2c[nH]cn2)NC(=O)CC[C@H](NC(=O)CCCCCCCCCCCCCCCCCCC(=O)O)C(=O)O)C(=O)N[C@@H](CC(N)=O)C(=O)N[C@@H]([C@@H](C)O)C(=O)N[C@@H](C)C(=O)N[C@@H]([C@@H](C)O)C(=O)N1)[C@@H](C)O [Compound 88, [19CD]-isoGlu-HKC()NTATC()ATQRLAEFLHRSSNNF-Gly(Me)-A-Ile(Me)-LSSTNVGSNTP-NH2] ({C20 diacid-γGlu}-HKCNTATCATQRLAEFLHRSSNNF[Sar]A[NMeI]LSSTNVGSNTP-NH2; disulfide 3-8) | SS (SS indicates solubility ≥ 1mg/ml) | SS (SS indicates solubility ≥ 1mg/ml) | SS (SS indicates solubility ≥ 1mg/ml) | SS (SS indicates solubility ≥ 1mg/ml) | SS (SS indicates solubility ≥ 1mg/ml) | SS (SS indicates solubility ≥ 1mg/ml) | SS (SS indicates solubility ≥ 1mg/ml) | 69
CC[C@H](C)[C@@H](C(=O)N[C@@H](CC(C)C)C(=O)N[C@@H](CO)C(=O)N[C@@H](CO)C(=O)N[C@H](C(=O)N[C@@H](CC(N)=O)C(=O)N[C@H](C(=O)NCC(=O)N[C@@H](CO)C(=O)N[C@@H](CC(N)=O)C(=O)N[C@H](C(=O)N1CCC[C@H]1C(N)=O)[C@@H](C)O)C(C)C)[C@@H](C)O)N(C)C(=O)[C@H](C)NC(=O)CN(C)C(=O)[C@H](Cc1ccccc1)NC(=O)[C@H](CC(N)=O)NC(=O)[C@H](CC(N)=O)NC(=O)[C@H](CO)NC(=O)[C@H](CO)NC(=O)[C@H](CCCNC(=N)N)NC(=O)[C@H](Cc1c[nH]cn1)NC(=O)[C@H](CC(C)C)NC(=O)[C@H](Cc1ccccc1)NC(=O)[C@H](CCC(=O)O)NC(=O)[C@H](C)NC(=O)[C@H](CC(C)C)NC(=O)[C@H](CCCNC(=N)N)NC(=O)[C@H](CCC(N)=O)NC(=O)[C@@H](NC(=O)[C@H](C)NC(=O)[C@@H]1CSSC[C@H](NC(=O)[C@H](CCCNC(=N)N)NC(=O)CC[C@H](NC(=O)CCCCCCCCCCCCCCCCC(=O)O)C(=O)O)C(=O)N[C@@H](CC(N)=O)C(=O)N[C@@H]([C@@H](C)O)C(=O)N[C@@H](C)C(=O)N[C@@H]([C@@H](C)O)C(=O)N1)[C@@H](C)O [Compound 89, [17CD]-isoGlu-RC()NTATC()ATQRLAEFLHRSSNNF-Gly(Me)-A-Ile(Me)-LSSTNVGSNTP-NH2] ({C18 diacid-γGlu}-RCNTATCATQRLAEFLHRSSNNF[Sar]A[NMeI]LSSTNVGSNTP-NH2; disulfide 2-7) | SS (SS indicates solubility ≥ 1mg/ml) | SS (SS indicates solubility ≥ 1mg/ml) | SS (SS indicates solubility ≥ 1mg/ml) | SS (SS indicates solubility ≥ 1mg/ml) | SS (SS indicates solubility ≥ 1mg/ml) | SS (SS indicates solubility ≥ 1mg/ml) | SS (SS indicates solubility ≥ 1mg/ml) | 54
